Experimental data reported in US20110117020A1, “IMAGING DENDRIMER NANOPROBES AND USES THEREOF” (THE TRUSTEES OF THE UNIVERSITY OF PENNSYLVANIA, priority 2008, published 2011).
Marks after values point to notes of the source that are not given here.

What was measured:
[1] = Optical absorption spectra (UV-Vis spectrophotometer); type: physicochemical; details: for Absorption log e / Absorption λmax: Table I; for Absorption Q band / Absorption Q band Ig ε / Absorption Soret band / Absorption Soret band Ig ε: Table II
Description: (§1) Quartz fluorometric cells (Starna, Inc, 1 cm optical path length) were used in optical experiments. Optical spectra were recorded on a Perkin-Elmer Lambda 35 UV-Vis spectrophotometer. Steady state fluorescence and phosphorescence measurements were performed on a SPEX Fluorolog-2 spectrofluorometer (Jobin-Yvon Horiba), equipped with an infra-red enhanced R2658P PMT (Hamamatsu). Emission spectra were obtained using solutions with absorption at the excitation maxima of approximately 0.05 OD. Quantum yields of emission of all the synthesized compounds were measured relative to the fluorescence of tetraphenylporphyrin (φfl=0:11 in deox. C6H6).

[2] = Steady state phosphorescence: emission maxima, quantum yields, lifetimes; type: physicochemical; details: for Phosphorescence φ: PhCN, deoxygenated, relative to fluorescence of H2TPP in deoxygenated benzene
Description: as §1

[3] = solution in PhCN, deoxygenated by Ar-bubbling
[4] = solution in PhCN, deoxygenated by Ar-bubbling, above 900 nm large experimental errors

| SMILES | Absorption log e ([1]; first band) | Absorption λmax ([1]; first band) [nm] | Absorption log e ([1]; second band) | Absorption λmax ([1]; second band) [nm] | Phosphorescence λmax ([2]; Table I) [nm] | τ0 ([2]; Table I) [μs] | φp ([2]; Table I) | Absorption Q band [1] [nm] | Absorption Q band Ig ε [1] | Absorption Soret band [1] [nm] | Absorption Soret band Ig ε [1] | Phosphorescence φ [2] | Phosphorescence τ0 [2, 3] [μs] | Phosphorescence λmax [2, 4] |
| --- | --- | --- | --- | --- | --- | --- | --- | --- | --- | --- | --- | --- | --- | --- |
| O=C(O)c1cc(C(=O)O)cc(C2=C3N=C(C(c4cc(C(=O)O)cc(C(=O)O)c4)=c4c5ccccc5c5[n]4[Pd][n]4c2c2ccccc2c4C(c2cc(C(=O)O)cc(C(=O)O)c2)=C2N=C(C=5c4cc(C(=O)O)cc(C(=O)O)c4)c4ccccc42)c2ccccc23)c1 | 5.46 | 446 | 5.00 | 635 | 816 | 210 | 0.09 | – | – | – | – | – | – | – |
| O=C(O)c1cc(C(=O)O)cc(C2=C3C=CC(=N3)C(c3cc(C(=O)O)cc(C(=O)O)c3)=c3ccc4[n]3[Pt][n]3c2ccc3C(c2cc(C(=O)O)cc(C(=O)O)c2)=C2C=CC(=N2)C=4c2cc(C(=O)O)cc(C(=O)O)c2)c1 [Octacarboxyporphyrin Pt, Octacarboxyporphyrin] | 5.54 | 406 | 4.50 | 512 | – | 53 | 0.24 | – | – | – | – | – | – | – |
| O=C(O)c1cc(C(=O)O)cc(C2=C3N=C(C(c4cc(C(=O)O)cc(C(=O)O)c4)=c4c5cc6ccccc6cc5c5[n]4[Pt][n]4c2c2cc6ccccc6cc2c4C(c2cc(C(=O)O)cc(C(=O)O)c2)=C2N=C(C=5c4cc(C(=O)O)cc(C(=O)O)c4)c4cc5ccccc5cc42)c2cc4ccccc4cc23)c1 [Octacarboxytetra naphthoporphyrin Pt, Octacarboxytetra naphthoporphyrin] | 5.14 | 441 | 5.28 | 700 | 923 | 12 | 0.06 | – | – | – | – | – | – | – |
| CCCCOC(=O)c1cc(C(=O)OCCCC)cc(C2=C3N=C(C(c4cc(C(=O)OCCCC)cc(C(=O)OCCCC)c4)=c4c5cc6ccccc6cc5c5[n]4[Pd][n]4c2c2cc6ccccc6cc2c4C(c2cc(C(=O)OCCCC)cc(C(=O)OCCCC)c2)=C2N=C(C=5c4cc(C(=O)OCCCC)cc(C(=O)OCCCC)c4)c4cc5ccccc5cc42)c2cc4ccccc4cc23)c1 [Pd-3-OBu] | – | – | – | – | – | – | – | 716 | 5.29 | 458 | 5.29 | 0.02 | 52 | 961 [c] nm |
| O=C(O)c1cc(C(=O)O)cc(C2=C3N=C(C(c4cc(C(=O)O)cc(C(=O)O)c4)=c4c5ccccc5c5[n]4[Pt][n]4c2c2ccccc2c4C(c2cc(C(=O)O)cc(C(=O)O)c2)=C2N=C(C=5c4cc(C(=O)O)cc(C(=O)O)c4)c4ccccc42)c2ccccc23)c1 | 5.23 | 433 | 5.00 | 622 | 791 | 41 | 0.30 | – | – | – | – | – | – | – |
| CCCCOC(=O)c1cc(C(=O)OCCCC)cc(C2=C3C=CC(=N3)C(c3cc(C(=O)OCCCC)cc(C(=O)OCCCC)c3)=c3ccc4[n]3[Pd][n]3c2ccc3C(c2cc(C(=O)OCCCC)cc(C(=O)OCCCC)c2)=C2C=CC(=N2)C=4c2cc(C(=O)OCCCC)cc(C(=O)OCCCC)c2)c1 [Pd-1-OBu] | – | – | – | – | – | – | – | 526 | 4.57 | 422 | 5.61 | 0.08 | 504 | 696 nm |
